In paper PMC6458850, “CXXC5 mediates growth plate senescence and is a target for enhancement of longitudinal bone growth” (Life Science Alliance, 2019):

Key:
[1] = In vivo pharmacokinetics of KY19382; conditions: SD male rat; for AUC(0-t): 0 to 24 hour
Method: Animal studies were approved by the Institutional Animal Care and use committee at KRIBB. Briefly, specific pathogen-free male Sprague−Dawley (SD) rats (10 weeks old, body weight 298−315 g), purchased from Koatech Co. […] Dosing solutions were prepared in dimethylacetamide (DMAC)/polyethylene glycol 400 (PEG400) (20/80, v/v %) for administrations, and administered at dosing volumes of 5 and 10 ml/kg for iv and ip, respectively. A 100 μl aliquot of each plasma sample was prepared, and three volumes of ice-cold acetonitrile containing carbamazepine (internal standard) were added. The mixture was centrifuged at 910 g for 10 minutes, and the supernatant was subjected to LC−MS/MS analysis. Pharmacokinetic parameters were calculated by standard noncompartmental analysis of plasma concentration−time profiles using Kinetica 4.4.1 (Thermo Fisher Scientific, Inc., Woburn, MA, USA). The areas under the plasma concentration−time curves (AUC) were calculated by the linear−trapezoidal method. Systemic plasma clearance (CLP) was calculated as follows: CLP = dose/AUCinf. Terminal elimination half-life (t1/2) was calculated by the following equation: t1/2 = 0.693/λZ where λZ is the terminal disposition rate constant. Volume of distribution at steady state (VSS) was calculated as follows: VSS = dose × AUMCinf/(AUCinf)^2, where AUMCinf is the area under the first moment of the plasma concentration−time curve extrapolated to infinity. Bioavailability (F) was calculated as follows: F (%) = (AUCip/AUCiv)(doseiv/doseip) × 100.
Pharmacokinetic parameters were based on the mean plasma concentration-time profiles of SD male rat (n=3). Pharmacokinetic parameters were obtained by non-compartmental analysis of the plasma concentration-time profiles using KineticaTM 4.4.1 (Thermo Fisher Scientific, Inc., Woburn, MA, USA). AUClast was calculated from 0 to 24 hour. IV, intravenous; IP, intraperitoneal; Tmax, Time to maximum plasm concentration; Cmax, Maximum plasma concentration after intraperitoneal injection; AUC, Area under the curve; CL, clearance; Vss, Volume of distribution at steady state; T1/2, Elimination half-life; F, bioavailability.

ATDC5 cells = experiment: Chondrocyte proliferation, differentiation and Wnt/β-catenin signaling in ATDC5 cells; assay type: cell-based, mouse
Method: Figure S7. The effects of KY19382 on chondrocyte proliferation and differentiation. (A) ATDC5 cells treated with 0.01 or 0.1 μM concentrations of KY19382 were incubated for 48 h followed by treatment with 50 μM BrdU for 12 h before harvesting. BrdU incorporation was visualized by immunofluorescent staining using a specific BrdU antibody (left). BrdU-positive cells were quantified (mean ± SEM, n = 3; ANOVA, P = 7.8 × 10^−5; Tukey’s post-hoc test, *P < 0.05 and ***P < 0.0005) (right). Scale bar, 100 μm. (B) qRT-PCR analyses of mRNA levels of chondrogenic differentiation markers in ATDC5 cells incubated with 0.1 μM KY19382 for 3 d in three-dimensional alginate beads after transfection with control siRNA or Ctnnb1 siRNA (mean ± SEM, n = 3; t test, *P < 0.05, **P < 0.005, and ***P < 0.0005). (C) qRT-PCR analyses of mRNA levels of chondrogenic differentiation markers in C28/I2 cells incubated with 1 μM KY19382 for 3 d in three-dimensional alginate beads (mean ± SEM, n = 3; t test, *P < 0.05 and ***P < 0.0005). n.s., no significance.
Figure S8. qRT-PCR analyses for target-specificity of KY19382. qRT-PCR analyses of mRNA levels of pathway-specific target genes in ATDC5 cells treated with 0.01 or 0.1 μM concentrations of KY19382 for 4 h (mean ± SEM, n = 3; ANOVA and Tukey’s post-hoc test, *P < 0.05 and **P < 0.005 versus DMSO-treated control). n.s., no significance versus DMSO-treated control.
The mouse chondrogenic cell line, ATDC5, was obtained from the RIKEN Cell Bank. The human juvenile costal chondrocyte cell line, C28/I2, was provided by Dr. W U Kim (Catholic University, Korea). HEK293-TOP cells (HEK293 cells containing the chromosomally incorporated TOPFlash gene) were provided by Dr. S Oh (Kuk Min University, Korea). ATDC5 cells were maintained in DMEM/F12 (1:1) (Gibco) supplemented with 5% FBS (Gibco). To induce hypertrophic differentiation, ATDC5 cells were incubated with insulin–transferrin–sodium selenite supplement (Gibco) in three-dimensional alginate beads for 3 d, as described previously ([Kawasaki et al, 2008]). C28/I2 and HEK293-TOP cells were maintained in DMEM (Gibco) containing 10% FBS. All chemicals were dissolved in dimethyl sulfoxide (DMSO; Sigma-Aldrich) for the in vitro studies. For E2 (17β-estradiol; Sigma-Aldrich) treatment, the cells were cultured in phenol red–free DMEM/F12 with 5% charcoal-stripped FBS for 24 h followed by serum-free medium for 24 h before the experiment. The PTD-DBMP was synthesized by Peptide 2.0 Inc.
ATDC5 or C28/I2 cells were seeded on glass coverslip in 12-well culture plates. The cells were washed with PBS and fixed with 4% PFA at room temperature for 15 min. After permeabilization with 0.1% Triton X-100 for 15 min and blocking with 5% BSA for 1 h, the cells were incubated with primary antibodies specific for β-catenin (1:100) or CXXC5 (1:200) at 4°C overnight. The cells were washed in PBS and incubated with Alexa Fluor 488 or Alexa Fluor 555 secondary antibodies (1:200) at room temperature for 1 h. Cell nuclei were counterstained with DAPI for 10 min and the stained samples were examined under an LSM700 META microscope using 405-, 488-, or 543-nm excitation wavelengths. For BrdU assay, the cultured cells were incubated with BrdU solution (25 μM) overnight, followed by immunocytochemical staining with antibody against BrdU (1:100).
Immunoprecipitation was performed as previously described ([Kim et al, 2015]). To monitor the protein–protein interactions, 1 mg of WCLs were incubated with anti-DVL1 and protein G agarose beads (GenDEPOT) or anti-Myc and protein A agarose beads (GenDEPOT) at 4°C for 16 h, and the beads were then washed three times in RIPA buffer. The resulting immune complexes were resolved by SDS–PAGE, and immunoblotting was performed with the indicated antibodies.
Total RNA was extracted using Trizol reagent (Invitrogen) according to the manufacturer’s instructions. […]

[2] = Sprague-Dawley, plasma, IP, 5 mg/kg, mean
[3] = Sprague-Dawley, plasma, IV, 1 mg/kg, mean
[4] = ATDC5 cells, 0.01 or 0.1 μM, 4 h

## CON=C1C(=C2C(=O)Nc3cc(Cl)c(Cl)cc32)Nc2ccccc21 [KY19382, 5,6-dichloroindirubin-3′-methoxime]
[1]; IP, 5 mg/kg, mean
  CL: 0.47 L/h/kg
[1]; Sprague-Dawley, plasma, intraperitoneal, IP 5 mg/kg vs IV 1 mg/kg, read-out: F (intraperitoneal bioavailability)
  bioavailability: 16.7%
[1]; [2]
  Cmax: 463 ng/mL
  Tmax: 1 h
  half-life: 972 min
  AUC(0-t): 6560 ng·h/mL
[1]; [3]
  clearance: 2 mL/min/kg
  half-life: 200 min
  AUC(0-t): 7830 ng·h/mL
[1]; Sprague-Dawley, plasma, IV, 1 mg/kg, mean, read-out: Vss
  Vd: 0.33 L/kg
ATDC5 cells; 0.01 or 0.1 μM, 48 h
  BrdU-positive ATDC5 cells: enhanced number
ATDC5 cells; ATDC5 cells transfected with FLAG-DVL1 and CXXC5-Myc, 0.1 μM, 4 h
  CXXC5–DVL interaction (immunoprecipitation): interruption
ATDC5 cells; ATDC5 cells, 0.1 μM, 48 h
  nuclear translocation of β-catenin: elevated nuclear translocation
ATDC5 cells; ATDC5 cells, 0.1 μM, 3 d, alginate beads
  mRNA levels of chondrogenic markers: up-regulated
ATDC5 cells; [4]
  expression levels of Wnt/β-catenin target genes (Wisp1, Axin2): markedly increased
  expression of 19 other genes that respond to other pathways (off-target effects): not significantly altered
ATDC5 cells; Fig 4E and Fig S8
  concentration sufficient to promote activation of Wnt/β-catenin pathway in vitro: 0.01 µM
